Assay results as given in patent publication US8114880B2, “Piperidine or piperazine substituted tetrahydro-naphthalene-1-carboxylic acid MTP inhibiting compounds” (Janssen Pharmaceutica N.V., priority 2006, dated 2012).

molecular target: MTP (Homo sapiens, UniProt P55157); assay: MTP assay (triglyceride transfer from donor to acceptor vesicles); format: biochemical; details: MTP activity, percent triglyceride transfer from donor to acceptor vesicles, 37° C.
Protocol: MTP activity was measured using an assay similar to one described by J. R. Wetterau and D. B. Zilversmit in Chemistry and Physics of Lipids, 38, 205-222 (1985). To prepare the donor and acceptor vesicles, the appropriate lipids in chloroform were put into a glass test tube and dried under a stream of nitrogen. A buffer containing 15 mM Tris-HCl pH 7.5, 1 mM EDTA, 40 mM NaCl, 0.02% NaN3 (assay buffer) was added to the dried lipid. The mixture was vortexed briefly and the lipids were then allowed to hydrate for 20 minutes on ice. Vesicles were then prepared by bath sonication (Branson 2200) at room temperature for maximum 15 minutes. Butylated hydroxytoluene was included in all vesicle preparations at a concentration of 0.1%. The lipid transfer assay mixture contained donor vesicles (40 nmol phosphatidylcholine, 7.5 mol % of cardiolipin and 0.25 mol % glycerol tri [1-^14C]-oleate), acceptor vesicles (240 nmol phosphatidylcholine) and 5 mg BSA in a total volume of 675 μl in a 1.5 ml microcentrifuge tube. Test compounds were added dissolved in DMSO (0.13% final concentration). After 5 minutes of pre-incubation at 37° C., the reaction was started by the addition of MTP in 100 μl dialysis buffer. The reaction was stopped by the addition of 400 μl DEAE-52 cellulose pre-equilibrated in 15 mM Tris-HCl pH 7.5, 1 mM EDTA, 0.02% NaN3 (1:1, vol/vol). The mixture was agitated for 4 minutes and centrifuged for 2 minutes at maximum speed in an Eppendorf centrifuge (4° C.) to pellet the DEAE-52-bound donor vesicles. An aliquot of the supernatant containing the acceptor liposomes was counted and the [^14C]-counts were used to calculate the percent triglyceride transfer from donor to acceptor vesicles.

Chain of MTP (P55157 19-894, species assumed): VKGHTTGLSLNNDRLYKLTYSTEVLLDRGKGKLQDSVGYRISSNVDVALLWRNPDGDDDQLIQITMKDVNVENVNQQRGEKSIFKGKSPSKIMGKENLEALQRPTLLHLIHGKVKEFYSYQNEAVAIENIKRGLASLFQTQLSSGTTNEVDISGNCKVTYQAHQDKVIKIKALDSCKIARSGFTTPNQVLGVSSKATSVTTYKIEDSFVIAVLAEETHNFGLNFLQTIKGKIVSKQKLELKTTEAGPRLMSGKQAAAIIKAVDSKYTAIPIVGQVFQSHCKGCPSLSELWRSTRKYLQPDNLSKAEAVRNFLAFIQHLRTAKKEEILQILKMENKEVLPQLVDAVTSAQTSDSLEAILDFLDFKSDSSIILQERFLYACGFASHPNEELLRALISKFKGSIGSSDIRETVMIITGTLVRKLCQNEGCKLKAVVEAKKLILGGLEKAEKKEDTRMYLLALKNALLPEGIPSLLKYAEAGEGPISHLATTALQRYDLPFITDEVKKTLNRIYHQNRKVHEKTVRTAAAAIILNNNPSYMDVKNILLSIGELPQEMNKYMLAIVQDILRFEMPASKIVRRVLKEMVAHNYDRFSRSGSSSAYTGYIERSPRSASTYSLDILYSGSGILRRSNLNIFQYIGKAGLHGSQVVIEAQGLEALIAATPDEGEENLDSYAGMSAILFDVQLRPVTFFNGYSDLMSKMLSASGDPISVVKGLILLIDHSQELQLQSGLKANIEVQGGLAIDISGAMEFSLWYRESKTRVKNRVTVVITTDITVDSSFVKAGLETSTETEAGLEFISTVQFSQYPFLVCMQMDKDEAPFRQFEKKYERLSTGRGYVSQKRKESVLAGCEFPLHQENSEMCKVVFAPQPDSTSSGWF
Chain of MTP (P07237 18-508 partner, species assumed): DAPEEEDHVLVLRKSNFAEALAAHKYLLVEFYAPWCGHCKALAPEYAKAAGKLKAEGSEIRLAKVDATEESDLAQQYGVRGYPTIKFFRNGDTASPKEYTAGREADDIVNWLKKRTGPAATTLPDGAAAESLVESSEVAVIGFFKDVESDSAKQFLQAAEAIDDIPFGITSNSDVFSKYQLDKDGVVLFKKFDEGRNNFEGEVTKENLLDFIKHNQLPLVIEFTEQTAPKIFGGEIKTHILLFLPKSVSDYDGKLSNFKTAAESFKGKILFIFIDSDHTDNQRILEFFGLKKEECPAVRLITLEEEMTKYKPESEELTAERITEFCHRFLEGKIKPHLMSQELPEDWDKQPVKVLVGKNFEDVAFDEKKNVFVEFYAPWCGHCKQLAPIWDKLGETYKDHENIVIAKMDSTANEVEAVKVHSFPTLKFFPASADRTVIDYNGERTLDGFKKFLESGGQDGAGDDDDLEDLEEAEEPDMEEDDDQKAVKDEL

CCOC(=O)CC(C)NC(=O)[C@@]1(c2ccccc2)CC[C@H](C(=O)N2CCC(NC(=O)c3cccn(C)c3=O)CC2)c2ccccc21 (mixture of isomers) [Co. No. 223] and CCOC(=O)[C@H](C)NC(=O)[C@@]1(c2ccccc2)CC[C@H](C(=O)N2CCC(NC(=O)c3cccn(C)c3=O)CC2)c2ccccc21 [Co. No. 135] are within 1.5-fold of each other in IC50: 1790 nM for the first, 1340 nM for the second.

Compared with CCNC(=O)[C@]1(c2ccccc2)CC[C@H](C(=O)N2CCC(NC(=O)c3ccccc3OC)CC2)c2ccccc21 [Co. No. 9], CCNC(=O)[C@]1(c2ccccc2)CC[C@@H](C(=O)N2CCC(NC(=O)c3ccccc3OC)CC2)c2ccccc21 [Co. No. 38] is 5.5-fold higher in IC50: 689 nM for the first, 3820 nM for the second.

Going from C=CCOC(=O)[C@]1(c2ccccc2)CC[C@H](C(=O)N2CCC(NC(=O)c3ccccc3)CC2)c2ccccc21 [Co. No. 12] to COc1ccccc1C(=O)NC1CCN(C(=O)[C@H]2CC[C@](C(N)=O)(c3ccccc3)c3ccccc32)CC1 [Co. No. 37], the IC50 rises from 778 nM to 7830 nM (10-fold).

Going from CCNC(=O)[C@]1(c2ccccc2)CC[C@@H](CN2CCC(NC(=O)c3ccccc3)CC2)c2ccccc21 [Co. No. 17] to COC(=O)[C@]1(c2ccccc2)CC[C@@H](C(=O)N2CCC(NC(=O)c3ccccc3OC)CC2)c2ccccc21 [Co. No. 60], the IC50 falls from 277 nM to 2.51 nM (110-fold).

Compared with CCOC(=O)[C@]1(c2ccccc2)CC[C@H](C(=O)N2CCN(C(=O)c3ccccc3)CC2)c2ccccc21 [Co. No. 29], CCOC(=O)[C@]1(c2ccccc2)CC[C@H](C(=O)N2CCN(C(=O)c3ccccc3OC)CC2)c2ccccc21 [Co. No. 30] is 5.6-fold lower in IC50: 3340 nM for the first, 601 nM for the second. The second is the more potent here.

Going from CCOC(=O)[C@]1(c2ccccc2)CC[C@H](C(=O)N2CCN(C(=O)c3ccccc3-c3ccc(C(F)(F)F)cc3)CC2)c2ccccc21 [Co. No. 31] to COc1ccccc1C(=O)NC1CCN(C(=O)[C@H]2CC[C@@](C(=O)N[C@@H](Cc3ccc(O)cc3)C(=O)O)(c3ccccc3)c3ccccc32)CC1 [Co. No. 126], the IC50 rises from 348 nM to 6190 nM (18-fold).

First: COC(=O)[C@]1(c2ccccc2)CC[C@@H](C(=O)N2CCC(NC(=O)c3cc(S(N)(=O)=O)ccc3OC)CC2)c2ccccc21 [Co. No. 52]
Second: COc1ccccc1C(=O)NC1CCN(C(=O)[C@H]2CC[C@@](C(=O)N[C@H](C)C(=O)O)(c3ccccc3)c3ccccc32)CC1 [Co. No. 97]
The IC50 of the first is 6.6-fold lower: 627 nM for the first, 4120 nM for the second.

Going from CCOC(=O)[C@H](CO)NC(=O)[C@@]1(c2ccccc2)CC[C@H](C(=O)N2CCC(NC(=O)c3ccccc3OC)CC2)c2ccccc21 [Co. No. 71] to COc1ccccc1C(=O)NC1CCN(C(=O)[C@H]2CC[C@@](C(=O)N[C@@H](C)C(=O)O)(c3ccccc3)c3ccccc32)CC1 [Co. No. 116], the IC50 rises from 493 nM to 8410 nM (17-fold).

Going from CCOC(=O)[C@@H]1CCCN1C(=O)[C@@]1(c2ccccc2)CC[C@H](C(=O)N2CCC(NC(=O)c3ccccc3OC)CC2)c2ccccc21 [Co. No. 76] to CCOC(=O)[C@H]1CCCN1C(=O)[C@@]1(c2ccccc2)CC[C@H](C(=O)N2CCC(NC(=O)c3ccccc3OC)CC2)c2ccccc21 [Co. No. 77], the IC50 falls from 326 nM to 217 nM (1.5-fold). The second is the more potent here.

First: COC(=O)[C@@H]1C[C@@H](O)CN1C(=O)[C@@]1(c2ccccc2)CC[C@H](C(=O)N2CCC(NC(=O)c3ccccc3OC)CC2)c2ccccc21 [Co. No. 78]
Second: COc1ccccc1C(=O)NC1CCN(C(=O)[C@H]2CC[C@@](C(=O)N3C[C@H](O)C[C@H]3C(=O)O)(c3ccccc3)c3ccccc32)CC1 [Co. No. 92]
The IC50 of the first is lower: 3820 nM for the first, over 10000 nM for the second. The first is the more potent here.

COc1ccccc1C(=O)NC1CCN(C(=O)[C@H]2CC[C@@](C(=O)N(C)CC(=O)OC(C)(C)C)(c3ccccc3)c3ccccc32)CC1 [Co. No. 87] and COc1ccccc1C(=O)NC1CCN(C(=O)[C@H]2CC[C@@](C(=O)N[C@H](C)C(=O)OC(C)(C)C)(c3ccccc3)c3ccccc32)CC1 [Co. No. 93] are within 1.5-fold of each other in IC50: 11.7 nM for the first, 9.33 nM for the second.

COc1ccccc1C(=O)NC1CCN(C(=O)[C@H]2CC[C@@](C(=O)N3C[C@H](OC(C)(C)C)C[C@H]3C(=O)OC(C)(C)C)(c3ccccc3)c3ccccc32)CC1 [Co. No. 91] and COc1ccccc1C(=O)NC1CCN(C(=O)[C@H]2CC[C@@](C(=O)N3CCCC3C(=O)OC(C)(C)C)(c3ccccc3)c3ccccc32)CC1 (some centres unmarked) [Co. No. 94] cannot be ordered by IC50: over 100 nM for the first, 210 nM for the second.

Going from COc1ccccc1C(=O)NC1CCN(C(=O)[C@H]2CC[C@@](C(=O)N[C@@H](C(=O)OC(C)(C)C)c3ccccc3)(c3ccccc3)c3ccccc32)CC1 [Co. No. 95] to COc1ccccc1C(=O)NC1CCN(C(=O)[C@H]2CC[C@@](C(=O)N[C@H](C(=O)OC(C)(C)C)c3ccccc3)(c3ccccc3)c3ccccc32)CC1 [Co. No. 111], the IC50 rises from 140 nM to 219 nM (1.6-fold).

COc1ccccc1C(=O)NC1CCN(C(=O)[C@H]2CC[C@@](C(=O)N3CCC[C@@H]3C(=O)O)(c3ccccc3)c3ccccc32)CC1 [Co. No. 98] and COc1ccccc1C(=O)NC1CCN(C(=O)[C@H]2CC[C@@](C(=O)N3CCC[C@H]3C(=O)O)(c3ccccc3)c3ccccc32)CC1 [Co. No. 123] are within 1.5-fold of each other in IC50: 4750 nM for the first, 3820 nM for the second.

COc1ccccc1C(=O)NC1CCN(C(=O)[C@H]2CC[C@@](C(=O)N[C@@H](C(=O)O)c3ccccc3)(c3ccccc3)c3ccccc32)CC1 [Co. No. 99] and COc1ccccc1C(=O)NC1CCN(C(=O)[C@H]2CC[C@@](C(=O)N[C@H](C(=O)O)c3ccccc3)(c3ccccc3)c3ccccc32)CC1 [Co. No. 124] cannot be ordered by IC50: over 10000 nM for the first, over 10000 nM for the second.

COc1ccccc1C(=O)NC1CCN(C(=O)[C@H]2CC[C@@](C(=O)N[C@H](Cc3ccccc3)C(=O)O)(c3ccccc3)c3ccccc32)CC1 [Co. No. 100] and COc1ccccc1C(=O)NC1CCN(C(=O)[C@H]2CC[C@@](C(=O)N[C@@H](Cc3ccccc3)C(=O)O)(c3ccccc3)c3ccccc32)CC1 [Co. No. 125] are within 1.5-fold of each other in IC50: 6050 nM for the first, 8610 nM for the second.

First: COc1ccccc1C(=O)NC1CCN(C(=O)[C@H]2CC[C@@](C(=O)N[C@@H](C)C(=O)OC(C)(C)C)(c3ccccc3)c3ccccc32)CC1 [Co. No. 101]
Second: COc1ccccc1C(=O)NC1CCN(C(=O)[C@H]2CC[C@@](C(=O)N[C@@H](CC(N)=O)C(=O)OC(C)(C)C)(c3ccccc3)c3ccccc32)CC1 [Co. No. 115]
The IC50 of the first is 72-fold lower: 4.2 nM for the first, 301 nM for the second. The first is the more potent here.

COc1ccccc1C(=O)NC1CCN(C(=O)[C@H]2CC[C@@](C(=O)N[C@@H](Cc3ccc(O)cc3)C(=O)OC(C)(C)C)(c3ccccc3)c3ccccc32)CC1 [Co. No. 113] and COc1ccccc1C(=O)NC1CCN(C(=O)[C@H]2CC[C@@](C(=O)N[C@@H](Cc3c[nH]c4ccccc34)C(=O)OC(C)(C)C)(c3ccccc3)c3ccccc32)CC1 [Co. No. 114] are within 1.5-fold of each other in IC50: 163 nM for the first, 203 nM for the second.

COc1ccccc1C(=O)NC1CCN(C(=O)[C@H]2CC[C@@](C(=O)NC(C(=O)O)C(=O)O)(c3ccccc3)c3ccccc32)CC1 [Co. No. 117] and COc1ccccc1C(=O)NC1CCN(C(=O)[C@H]2CC[C@@](C(=O)N[C@@H](CCC(=O)O)C(=O)O)(c3ccccc3)c3ccccc32)CC1 [Co. No. 122] are the same in IC50: 4750 nM for the first, 4750 nM for the second.

Going from COc1ccccc1C(=O)NC1CCN(C(=O)[C@H]2CC[C@@](C(=O)N[C@@H](C(=O)O)C(C)C)(c3ccccc3)c3ccccc32)CC1 [Co. No. 118] to COc1ccccc1C(=O)NC1CCN(C(=O)[C@H]2CC[C@@](C(=O)N[C@@H](CC(C)C)C(=O)O)(c3ccccc3)c3ccccc32)CC1 [Co. No. 119], the IC50 rises from 887 nM to over 10000 nM.

COc1ccccc1C(=O)NC1CCN(C(=O)[C@H]2CC[C@@](C(=O)N[C@@H](COC(C)(C)C)C(=O)O)(c3ccccc3)c3ccccc32)CC1 [Co. No. 120] and COc1ccccc1C(=O)NC1CCN(C(=O)[C@H]2CC[C@@](C(=O)N[C@@H](CC(N)=O)C(=O)O)(c3ccccc3)c3ccccc32)CC1 [Co. No. 128] cannot be ordered by IC50: over 10000 nM for the first, over 10000 nM for the second.

First: COc1ccccc1C(=O)NC1CCN(C(=O)[C@H]2CC[C@@](C(=O)N[C@@H](Cc3c[nH]c4ccccc34)C(=O)O)(c3ccccc3)c3ccccc32)CC1 [Co. No. 127]
Second: COc1ccccc1C(=O)NC1CCN(C(=O)[C@H]2CC[C@@](C(=O)N[C@@H](CCCCN)C(=O)O)(c3ccccc3)c3ccccc32)CC1 [Co. No. 132]
The IC50 of the first is higher: over 10000 nM for the first, 355 nM for the second.

Compared with COC(=O)[C@H](CCCCNC(C)=O)NC(=O)[C@@]1(c2ccccc2)CC[C@H](C(=O)N2CCC(NC(=O)c3ccccc3OC)CC2)c2ccccc21 [Co. No. 130], CCOC(=O)[C@H](CCCCNC(C)=O)NC(=O)[C@@]1(c2ccccc2)CC[C@H](C(=O)N2CCC(NC(=O)c3ccccc3OC)CC2)c2ccccc21 [Co. No. 131] is 5.7-fold lower in IC50: 262 nM for the first, 45.6 nM for the second.

CCOC(=O)CNC(=O)[C@@]1(c2ccccc2)CC[C@H](C(=O)N2CCC(NC(=O)c3cccn(C)c3=O)CC2)c2ccccc21 [Co. No. 133] and CCOC(=O)[C@@H](C)NC(=O)[C@@]1(c2ccccc2)CC[C@H](C(=O)N2CCC(NC(=O)c3cccn(C)c3=O)CC2)c2ccccc21 [Co. No. 136] are within 1.5-fold of each other in IC50: 796 nM for the first, 1090 nM for the second.

Going from CCOC(=O)CN(C)C(=O)[C@@]1(c2ccccc2)CC[C@H](C(=O)N2CCC(NC(=O)c3cccn(C)c3=O)CC2)c2ccccc21 [Co. No. 137] to CCOC(=O)[C@@H](NC(=O)[C@@]1(c2ccccc2)CC[C@H](C(=O)N2CCC(NC(=O)c3cccn(C)c3=O)CC2)c2ccccc21)C(C)C [Co. No. 139], the IC50 rises from 474 nM to 826 nM (1.7-fold). The first is the more potent here.
